In experiment [1] the target is T1, Relaxin-3 (RXFP3) (h) (Homo sapiens, UniProt Q9NSD7).
T1 sequence (Q9NSD7 1-469): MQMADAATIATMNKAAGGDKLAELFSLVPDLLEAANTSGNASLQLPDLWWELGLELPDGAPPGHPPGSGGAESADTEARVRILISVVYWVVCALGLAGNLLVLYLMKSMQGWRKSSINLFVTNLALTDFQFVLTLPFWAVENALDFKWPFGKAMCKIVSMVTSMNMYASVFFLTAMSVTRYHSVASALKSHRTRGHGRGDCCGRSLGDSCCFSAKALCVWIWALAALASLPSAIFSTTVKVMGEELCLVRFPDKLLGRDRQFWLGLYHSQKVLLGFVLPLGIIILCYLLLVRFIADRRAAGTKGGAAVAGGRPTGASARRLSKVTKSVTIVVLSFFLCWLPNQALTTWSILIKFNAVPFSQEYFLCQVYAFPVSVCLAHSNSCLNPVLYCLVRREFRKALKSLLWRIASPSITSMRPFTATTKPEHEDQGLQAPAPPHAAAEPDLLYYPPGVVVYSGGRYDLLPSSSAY
Nature of the experiment: Relaxin-3 (RXFP3) (h) (agonist radioligand). The class given is binding. As for the experimental part:
(§1) Oxafuramine is tested at 10^−5 M, calculated as a % inhibition of control specific binding of a radioactively labeled ligand specific for each target.
The results are expressed as a % control specific binding ([measured specific binding/control specific binding]×100) and as a % inhibition of control specific binding (100−[(measured specific binding/control specific binding)×100]) obtained in the presence of the test compounds.
Results showing an inhibition (or stimulation) lower than 25% are not considered significant and mostly attributable to variability of the signal around the control level. […]
• 1. cAMP Hunter cell lines were expanded from freezer stocks according to standard procedures. • 2. Cells were seeded in a total volume of 20 μL into white walled, 384-well microplates and incubated at 37° C. for the appropriate time prior to testing. • 3. cAMP modulation was determined using the DiscoverX HitHunter cAMP XS+ assay. […]
[formula] • 6. For Gi positive allosteric mode assays, percentage modulation is calculated using the following formula: % Modulation=100%×(1−(mean RLU of test sample−mean RLU of MAX control) /(mean RLU of EC20 control−mean RLU of MAX control)). • 7. […]

Experiment [2] addresses T2, M4 (h) (Homo sapiens, UniProt P08173).
T2 construct: Eurofins (contract panel)
T2 sequence (P08173 1-479): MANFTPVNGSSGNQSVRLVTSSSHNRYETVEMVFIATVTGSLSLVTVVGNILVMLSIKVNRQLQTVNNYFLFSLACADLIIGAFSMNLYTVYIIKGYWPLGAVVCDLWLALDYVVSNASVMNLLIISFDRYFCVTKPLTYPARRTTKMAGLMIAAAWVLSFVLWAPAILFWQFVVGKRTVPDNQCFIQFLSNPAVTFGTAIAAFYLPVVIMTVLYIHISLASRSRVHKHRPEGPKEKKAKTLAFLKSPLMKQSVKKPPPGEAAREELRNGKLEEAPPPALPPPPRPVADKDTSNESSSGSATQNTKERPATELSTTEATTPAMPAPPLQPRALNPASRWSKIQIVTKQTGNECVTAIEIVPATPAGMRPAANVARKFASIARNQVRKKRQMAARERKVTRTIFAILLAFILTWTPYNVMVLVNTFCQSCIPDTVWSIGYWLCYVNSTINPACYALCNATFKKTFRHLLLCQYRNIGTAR
Nature of the experiment: Radioligand binding panel, M4 (h) (antagonist radioligand). The note with it: % inhibition of control specific binding. As to the method: as §1
This binding profile panel was broadly defined with roughly an equal number of selective, central and peripheral therapeutically relevant targets, including native animal tissues, radioligands and specific enzymes involved in cell cycle regulation in accordance with Eurofins Standard Operating Procedure (www.eurofins.fr).
For radioligand binding experiments, the half maximal inhibitory concentration (IC50) and the half maximal effective concentration (EC50) values were determined (via computer software) by nonlinear regression analysis of the competition curves using Hill equation curve fitting. The inhibition constants (Ki) were calculated using the Cheng-Prusoff equation (Ki=IC50/(1+(L/KD)), where L is the concentration of radioligand in the assay, and KD is the affinity of the radioligand for the receptor.
The results are expressed as a % control specific binding ([measured specific binding/control specific binding]×100) and as a % inhibition of control specific binding (100−[(measured specific binding/control specific binding)×100]) obtained in the presence of the test compounds. […]

Molecules are shown by their SMILES.

The term % Inhibition denotes the share of the control response that was lost under treatment. Low readings indicate a weak effect, high ones a strong effect. Usually inhibition stands for the drop in the measured response relative to a control, in per cent. Read a low inhibition as a weak effect.

For `CCN[C@H](Cc1ccccc1)[C@H]1CCCO1` [Oxafuramine, (1R)—N-ethyl-1-[(2R)-oxolan-2-yl]-2-phenylethanamine], in experiment [1], the “% Inhibition at 10^−5M, Relaxin-3 (RXFP3) (h) (agonist radioligand)” value is recorded as “weakly target”. Besides, the inhibition at 10 µM in experiment [1] (10^−5 M) was 16.5%; in experiment [2] (10^−5 M) it was around 51%. Besides, the “% Inhibition at 10^−5M, M4 (h) (antagonist radioligand)” value in experiment [2] is 50.8%.

These data come from patent US20250268859A1, “OXAFURAMINE, (1R)-N-ETHYL-1-[(2R)-OXOLAN-2-YL]-2-[…], HYDROCHLORIDE AND DERIVATIVES THEREOF FOR TREATING ALZHEIMER'S DISEASE (AD), […] […], […] WITH LEWY BODIES (DLB), MIXED […], FRON[…] DEGENERATION (FTLD), AND PARKINSON'S DISEASE (PD)” (NLS Pharmaceutics AG, priority 2021, published 2025).
